ChEMBL document CHEMBL1150630, “Oxidation, reduction, and methylation of carnosic acid by Nocardia” (J Nat Prod, 2002)

System: Radical scavenging activity
Assay: Antioxidant activity assessed as DPPH free radical scavenging activity after 30 mins
Assay type: functional

Row | SMILES | IC50 [µM]
1 | O=C1O[C@H]([C@@H](O)CO)C(O)=C1O [ASCORBIC ACID] | 66.8
2 | COc1c(C(C)C)cc2c(c1O)[C@@]1(CO)CCCC(C)(C)[C@@H]1CC2 | 83.4
3 | CC(C)c1cc2c(c(O)c1O)[C@@]1(C(=O)O)CCCC(C)(C)[C@@H]1CC2 [CARNOSIC ACID] | 53.3
4 | CC1(C)CCC[C@@]23C(=O)OC(C[C@@H]12)c1cc(C(CO)CO)c(O)c(O)c13 | 66

The remaining lines, values ahead:

Row | IC50 [µM] | SMILES
5 | 114 | CC(C)c1cc2c(c(O)c1O)[C@@]13CCCC(C)(C)[C@@H]1C[C@@H]2OC3=O [CARNOSOL]
6 | 37.8 | Oc1cccc(O)c1O [PYROGALLOL]
7 | 46.1 | CCCOC(=O)c1cc(O)c(O)c(O)c1 [PROPYL GALLATE]
